Source: patent US20200079793A1, “COMPOUNDS AND METHODS FOR MODULATING ADENOSINE A2B RECEPTOR AND ADENOSINE A2A RECEPTOR” (CORVUS PHARMACEUTICALS, INC., priority 2018, published 2020)

Key:
A3R = target: T1, A3R (Homo sapiens, UniProt P0DMS8); assay: Activity assay of adenosine receptor modulators, A3R cAMP (Table 1); type: cell-based
T1 sequence (P0DMS8 1-318): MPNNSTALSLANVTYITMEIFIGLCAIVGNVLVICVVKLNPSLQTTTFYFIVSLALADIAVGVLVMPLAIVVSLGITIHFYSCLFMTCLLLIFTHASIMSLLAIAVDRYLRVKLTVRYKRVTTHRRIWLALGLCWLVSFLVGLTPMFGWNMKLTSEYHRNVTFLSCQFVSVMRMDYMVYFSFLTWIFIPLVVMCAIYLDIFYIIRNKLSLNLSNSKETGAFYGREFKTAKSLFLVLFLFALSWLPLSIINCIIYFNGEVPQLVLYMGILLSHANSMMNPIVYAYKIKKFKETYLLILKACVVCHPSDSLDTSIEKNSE
Method: (§1) Compounds (e.g., adenosine receptor modulators) were tested for its biological activity. The assay results in Table 1 indicate (+ means >1 μM; ++ means 100 nM to 1 μM; +++ means <100 nM).

Adenosine A2B Receptor = target: T2, Adenosine A2B Receptor (Homo sapiens, UniProt P29275); assay: Activity assay of adenosine receptor modulators, Adenosine A2B Receptor (Table 1); type: biochemical; conditions: cAMP; read-out: A2BR cAMP IC50
T2 sequence (P29275 1-332): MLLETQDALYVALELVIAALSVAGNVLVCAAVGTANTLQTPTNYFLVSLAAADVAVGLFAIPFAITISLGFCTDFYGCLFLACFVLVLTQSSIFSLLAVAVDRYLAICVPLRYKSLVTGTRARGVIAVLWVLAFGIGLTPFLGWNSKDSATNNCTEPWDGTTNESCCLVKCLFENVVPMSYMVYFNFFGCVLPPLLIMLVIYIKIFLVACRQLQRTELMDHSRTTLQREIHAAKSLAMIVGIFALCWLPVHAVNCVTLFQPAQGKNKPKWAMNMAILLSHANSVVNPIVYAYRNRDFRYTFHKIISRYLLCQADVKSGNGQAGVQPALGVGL
Method: as §1

A1R = target: T3, A1R (Homo sapiens, UniProt P30542); assay: Activity assay of adenosine receptor modulators, A1R cAMP (Table 1); type: cell-based
T3 sequence (P30542 1-326): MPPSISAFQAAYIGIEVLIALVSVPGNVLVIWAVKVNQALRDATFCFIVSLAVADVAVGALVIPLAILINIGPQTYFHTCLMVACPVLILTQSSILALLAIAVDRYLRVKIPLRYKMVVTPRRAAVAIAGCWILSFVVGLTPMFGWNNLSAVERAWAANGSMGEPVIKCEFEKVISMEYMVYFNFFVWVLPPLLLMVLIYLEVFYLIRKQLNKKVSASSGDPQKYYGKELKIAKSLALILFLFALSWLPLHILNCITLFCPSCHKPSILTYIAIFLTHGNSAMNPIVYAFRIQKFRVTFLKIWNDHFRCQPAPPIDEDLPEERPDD
Method: as §1

Adenosine A2A Receptor = Adenosine A2A Receptor (Homo sapiens, UniProt P29274); assay: Activity assay of adenosine receptor modulators, Adenosine A2A Receptor (Table 1); type: biochemical; conditions: cAMP; read-out: A2AR cAMP IC50
Method: as §1

Chain of Adenosine A2A Receptor (P29274 whole entry): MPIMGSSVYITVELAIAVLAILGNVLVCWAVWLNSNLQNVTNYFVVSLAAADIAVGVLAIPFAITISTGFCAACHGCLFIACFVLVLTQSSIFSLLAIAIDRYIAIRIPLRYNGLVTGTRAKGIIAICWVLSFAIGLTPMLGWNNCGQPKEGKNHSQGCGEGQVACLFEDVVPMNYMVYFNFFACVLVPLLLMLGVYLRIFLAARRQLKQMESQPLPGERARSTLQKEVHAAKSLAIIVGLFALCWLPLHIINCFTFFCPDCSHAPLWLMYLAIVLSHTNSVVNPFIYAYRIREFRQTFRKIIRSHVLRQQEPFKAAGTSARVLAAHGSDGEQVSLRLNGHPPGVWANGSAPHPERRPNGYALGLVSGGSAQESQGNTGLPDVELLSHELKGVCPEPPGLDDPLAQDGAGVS

Row | SMILES | IC50 (A3R) [nM] | IC50 (Adenosine A2B Receptor) [nM] | IC50 (A1R) [nM] | IC50 (Adenosine A2A Receptor) [nM]
1 | Cc1nc2nc(N[C@@H](C)c3cncc(F)c3)nc(C(=O)N3CC(NC(=O)c4ccoc4)C3)c2s1 [Example 72, (S)—N-(1-(5-((1-(5-Fluoropyridin-3-yl)ethyl)amino)-2-methylthiazolo[4,5-d]pyrimidine-7-carbonyl)azetidin-3-yl)furan-3-carboxamide] | 100 to 1000 | 100 to 1000 | > 1000 | < 100
2 | CC(=O)NCC1CN(C(=O)c2nc(N[C@@H](C)c3cncc(F)c3)nc3nc(C)sc23)C1 [Example 39, (S)—N-((1-(5-((1-(5-Fluoropyridin-3-yl)ethyl)amino)-2-methylthiazolo[4,5-d]pyrimidine-7-carbonyl)azetidin-3-yl)methyl)acetamide] | > 1000 | < 100 | > 1000 | > 1000
3 | Cc1nc2nc(N[C@@H](C)c3cncc(F)c3)nc(C(=O)N3CCCC3)c2s1 [Example 1, (S)-(5-((1-(5-Fluoropyridin-3-yl)ethyl)amino)-2-methylthiazolo[4,5-d]pyrimidin-7-yl)(pyrrolidin-1-yl)methanone] | 100 to 1000 | < 100 | > 1000 | 100 to 1000
4 | Cc1nc2nc(N[C@@H](C)c3ccccn3)nc(C(=O)N3CC(NC(=O)C(C)(C)C)C3)c2s1 [Example 62, 2,2-Dimethyl-N-[1-[2-methyl-5-[[(S)-1-(2-pyridyl)ethyl]amino]thiazolo[4,5-d]pyrimidine-7-carbonyl]azetidin-3-yl]propanamide] | 100 to 1000 | < 100 | > 1000 | < 100
5 | CC(=O)NC[C@H]1CCN(C(=O)c2nc(N[C@@H](C)c3cncc(F)c3)nc3nc(C)sc23)C1 [Example 53, N—(((R)-1-(5-(((S)-1-(5-Fluoropyridin-3-yl)ethyl)amino)-2-methylthiazolo[4,5-d]pyrimidine-7-carbonyl)pyrrolidin-3-yl)methyl)acetamide] | > 1000 | 100 to 1000 | > 1000 | > 1000
6 | Cc1nc2nc(N[C@@H](C)c3ccccn3)nc(C(=O)N3CCC3)c2s1 [Example 8, (S)-Azetidin-1-yl(2-methyl-5-((1-(pyridin-2-yl)ethyl)amino)thiazolo[4,5-d]pyrimidin-7-yl)methanone] | 100 to 1000 | < 100 | > 1000 | 100 to 1000
7 | Cc1nc2nc(N[C@@H](C)c3cncc(F)c3)nc(C(=O)N3CC[C@@H](N)C3)c2s1 [Example 42, ((R)-3-Aminopyrrolidin-1-yl)(5-(((S)-1-(5-fluoropyridin-3-yl)ethyl)amino)-2-methylthiazolo[4,5-d]pyrimidin-7-yl)methanone] |  | 100 to 1000 |  | > 1000
8 | COC[C@@H]1CCN(C(=O)c2nc(N[C@@H](C)c3cncc(F)c3)nc3nc(C)sc23)C1 [Example 47, (5-(((S)-1-(5-Fluoropyridin-3-yl)ethyl)amino)-2-methylthiazolo[4,5-d]pyrimidin-7-yl)((R)-3-(methoxymethyl)pyrrolidin-1-yl)methanone] | > 1000 | < 100 | > 1000 | > 1000
9 | Cc1nc2nc(N[C@@H](C)c3cccnc3)nc(C(=O)N3CC(NC(=O)C(C)(C)C)C3)c2s1 [Example 64, (S)—N-(1-(2-Methyl-5-((1-(pyridin-3-yl)ethyl)amino)thiazolo[4,5-d]pyrimidine-7-carbonyl)azetidin-3-yl)pivalamide] | 100 to 1000 | 100 to 1000 | > 1000 | < 100
10 | Cc1nc2nc(N[C@@H](C)c3cncc(F)c3)nc(C(=O)N3CC(C(=O)N(C)C)C3)c2s1 [Example 26, (S)-1-(5-((1-(5-Fluoropyridin-3-yl)ethyl)amino)-2-methylthiazolo[4,5-d]pyrimidine-7-carbonyl)-N,N-dimethylazetidine-3-carboxamide] |  | < 100 |  | > 1000
11 | Cc1nc2nc(N[C@@H](C)c3ccccn3)nc(C(=O)NC(C)C)c2s1 [Example 10, (S)—N-Isopropyl-2-methyl-5-((1-(pyridin-2-yl)ethyl)amino)thiazolo[4,5-d]pyrimidine-7-carboxamide] |  | < 100 |  | 100 to 1000
12 | Cc1nc2nc(N[C@@H](C)c3cncc(F)c3)nc(C(=O)N3CC[C@H](N)C3)c2s1 [Example 43, ((S)-3-Aminopyrrolidin-1-yl)(5-(((S)-1-(5-fluoropyridin-3-yl)ethyl)amino)-2-methylthiazolo[4,5-d]pyrimidin-7-yl)methanone] |  | 100 to 1000 |  | > 1000
13 | Cc1nc2nc(N[C@@H](C)c3cncc(F)c3)nc(C(=O)N3CCN(C(=O)CC(C)(C)C)C3)c2s1 [Example 34, (S)-1-(3-(5-((1-(5-Fluoropyridin-3-yl)ethyl)amino)-2-methylthiazolo[4,5-d]pyrimidine-7-carbonyl)imidazolidin-1-yl)-3,3-dimethylbutan-1-one] |  | 100 to 1000 |  | > 1000
14 | Cc1nc2nc(N[C@@H](C)c3cncc(F)c3)nc(C(=O)N3CCN(C(=O)NC(C)(C)C)C3)c2s1 [Example 35, (S)—N-(tert-Butyl)-3-(5-((1-(5-fluoropyridin-3-yl)ethyl)amino)-2-methylthiazolo[4,5-d]pyrimidine-7-carbonyl)imidazolidine-1-carboxamide] |  | 100 to 1000 |  | 100 to 1000
15 | Cc1nc2nc(N[C@@H](C)c3cncc(F)c3)nc(C(=O)NCCN3CCOCC3)c2s1 [Example 46, (S)-5-((1-(5-Fluoropyridin-3-yl)ethyl)amino)-2-methyl-N-(2-morpholinoethyl)thiazolo[4,5-d]pyrimidine-7-carboxamide] |  | 100 to 1000 |  | > 1000
16 | Cc1nc2nc(N[C@@H](C)c3ccccn3)nc(C(=O)N3CC[C@@H](O)C3)c2s1 [Example 19, ((R)-3-Hydroxypyrrolidin-1-yl)(2-methyl-5-(((S)-1-(pyridin-2-yl)ethyl)amino)thiazolo[4,5-d]pyrimidin-7-yl)methanone] |  | < 100 |  | > 1000
17 | Cc1nc2nc(N[C@@H](C)c3cncc(F)c3)nc(C(=O)N3CC(NC(=O)C4CCOC4)C3)c2s1 (stereo partly drawn) [Example 45, N-(1-(5-(((S)-1-(5-Fluoropyridin-3-yl)ethyl)amino)-2-methylthiazolo[4,5-d]pyrimidine-7-carbonyl)azetidin-3-yl)tetrahydrofuran-3-carboxamide] |  | 100 to 1000 |  | 100 to 1000
18 | Cc1nc2nc(N[C@@H](C)c3cccnc3)nc(C(=O)N[C@@H](C)c3cccnc3)c2s1 [Example 27, 2-Methyl-N—((S)-1-(pyridin-3-yl)ethyl)-5-(((S)-1-(pyridin-3-yl)ethyl)amino)thiazolo[4,5-d]pyrimidine-7-carboxamide] |  | 100 to 1000 |  | 100 to 1000
19 | Cc1nc2nc(N[C@@H](C)c3cncc(F)c3)nc(C(=O)NCc3cccnc3)c2s1 [Example 23, (S)-5-((1-(5-Fluoropyridin-3-yl)ethyl)amino)-2-methyl-N-(pyridin-3-ylmethyl)thiazolo[4,5-d]pyrimidine-7-carboxamide] |  | < 100 |  | 100 to 1000
20 | C[C@H](Nc1nc(C(=O)N2CCCC2)c2sc(N)nc2n1)c1cccnc1 [Example 20, (S)-(2-Amino-5-((1-(pyridin-3-yl)ethyl)amino)thiazolo[4,5-d]pyrimidin-7-yl)(pyrrolidin-1-yl)methanone] |  | 100 to 1000 |  | > 1000
21 | Cc1nc2nc(N[C@@H](C)c3cncc(F)c3)nc(C(=O)NCCNC(=O)NC(C)(C)C)c2s1 [Example 36, (S)—N-(2-(3-(tert-butyl)ureido)ethyl)-5-((1-(5-fluoropyridin-3-yl)ethyl)amino)-2-methylthiazolo[4,5-d]pyrimidine-7-carboxamide] |  | > 1000 |  | 100 to 1000
22 | Cc1nc2nc(N[C@@H](C)c3cncc(F)c3)nc(C(=O)NCCC3CCN(C(=O)OC(C)(C)C)CC3)c2s1 [Example 22, tert-Butyl (S)-4-(2-(5-((1-(5-fluoropyridin-3-yl)ethyl)amino)-2-methylthiazolo[4,5-d]pyrimidine-7-carboxamido)ethyl)piperidine-1-carboxylate] |  | 100 to 1000 |  | > 1000
23 | CC(=O)N(C)C1CN(C(=O)c2nc(N[C@@H](C)c3cncc(F)c3)nc3nc(C)sc23)C1 [Example 44, (S)—N-(1-(5-((1-(5-Fluoropyridin-3-yl)ethyl)amino)-2-methylthiazolo[4,5-d]pyrimidine-7-carbonyl)azetidin-3-yl)-N-methylacetamide] |  | 100 to 1000 |  | > 1000
